Experiments:
Leishmania donovani [1] = assay: Antileishmanial activity against Leishmania donovani 9515 amastigote infected in human THP-1 cells assessed as static activity by measuring inhibition of parasite growth incubated for 72 hrs by resazurin dye based assay; assay type: functional, organism-based; settings: Leishmania donovani, 9515, THP-1, 72 h
Leishmania major [2] = assay: Antileishmanial activity against Leishmania major IR-173 promastigotes assessed as inhibition of parasite growth incubated for 48 hrs by resazurin dye based assay; assay type: functional, organism-based; settings: IR-173, 48 h
Leishmania major [3] = assay: Antileishmanial activity against Leishmania major IR-173 amastigote infected in human THP-1 cells assessed as static activity by measuring inhibition of parasite growth incubated for 72 hrs by resazurin dye based assay; assay type: functional, organism-based; settings: IR-173, THP-1, 72 h
[4] = Selectivity index, ratio of IC50 for antileishmanial activity against Leishmania major IR-173 promastigotes to IC50 for antileishmanial activity against Leishmania major IR-173 amastigote infected in human THP-1 cells assessed as static activity; assay type: functional
Leishmania major [5] = assay: Leishmanicidal activity against Leishmania major IR-173 amastigote infected in human THP-1 cells incubated for 72 hrs by resazurin dye based analysis; assay type: functional, organism-based; settings: IR-173, THP-1, 72 h
[6] = Selectivity index, ratio of IC50 for cytotoxicity against African green monkey Vero cells to IC50 for leishmanicidal activity against Leishmania major […] amastigote infected in human THP-1 cells; assay type: toxicity, cell-based; settings: read-out: Ratio IC50
[7] = Selectivity index, ratio of IC50 for antileishmanial activity against Leishmania major IR-173 promastigotes to IC50 for leishmanicidal activity against Leishmania major IR-173 amastigote infected in human THP-1 cells; assay type: functional
Leishmania donovani [8] = assay: Antileishmanial activity against Leishmania donovani 9515 promastigotes assessed as inhibition of parasite growth incubated for 48 hrs by resazurin dye based assay; assay type: functional, organism-based; settings: Leishmania donovani, 9515, 48 h
Leishmania donovani [9] = assay: Leishmanicidal activity against Leishmania donovani 9515 amastigote infected in human THP-1 cells incubated for 72 hrs by resazurin dye based analysis; assay type: functional, organism-based; settings: Leishmania donovani, 9515, THP-1, 72 h
in vitro [10] = settings: African green monkey
in vitro [11] = settings: monkey, Vero cells
Description: Selectivity index, ratio of IC50 for cytotoxicity against African green monkey Vero cells to IC50 for antileishmanial activity against Leishmania major IR-173 promastigote

in vitro [12] = settings: monkey, Vero cells; remark: listed apart in the source
Description: Selectivity index, ratio of IC50 for cytotoxicity against African green monkey Vero cells to IC50 for antileishmanial activity against Leishmania major IR-173 amastigote infected in human THP-1 cells assessed as static activity

in vitro [13] = settings: monkey
Description: Selectivity index, ratio of IC50 for cytotoxicity against African green monkey Vero cells to IC50 for leishmanicidal activity against Leishmania donovani 9515 amastigote infected in human THP-1 cells

[14] = Cytotoxicity against HEK293 cells assessed as inhibition of cell growth incubated for 48 hrs by resazurin dye based assay; assay type: toxicity; settings: human
[15] = Selectivity index, ratio of IC50 for cytotoxicity against HEK293 cells to IC50 for antileishmanial activity against Leishmania major IR-173 promastigotes; assay type: toxicity, cell-based; settings: human, read-out: Ratio IC50
in vitro [16] = settings: human
[17] = Selectivity index, ratio of IC50 for cytotoxicity against African green monkey Vero cells to IC50 for antileishmanial activity against Leishmania donovani 9515 amastigote infected in human THP-1 cells assessed as static activity; assay type: toxicity, cell-based; settings: read-out: Ratio IC50
[18] = Selectivity index, ratio of IC50 for antileishmanial activity against Leishmania donovani 9515 promastigotes to IC50 for antileishmanial activity against Leishmania donovani 9515 amastigote infected in human THP-1 cells assessed as static activity; assay type: functional
[19] = Selectivity index, ratio of IC50 for antileishmanial activity against Leishmania donovani 9515 promastigotes to IC50 for leishmanicidal activity against Leishmania donovani 9515 amastigote infected in human THP-1 cells; assay type: functional
in vitro [20] = settings: monkey, Vero cells; remark: listed apart in the source
Description: Selectivity index, ratio of IC50 for cytotoxicity against African green monkey Vero cells to IC50 for antileishmanial activity against Leishmania donovani 9515 promastigotes

Row | IC50 at 48 h (in vitro [10]; Vero cells) [µM] | IC50 at 48 h (in vitro [16]; THP-1 cells) [µM] | Compound | IC50 (Leishmania donovani [1]) [µM] | IC50 (Leishmania major [2]) [µM] | IC50 (Leishmania major [3]) [µM] | Ratio IC50 [4] | IC50 (Leishmania major [5]) [µM] | selectivity ratio [6] | Ratio IC50 [7] | IC50 (Leishmania donovani [8]) [µM] | IC50 (Leishmania donovani [9]) [µM] | selectivity ratio (in vitro [12]) | selectivity ratio (in vitro [13]; Vero cells) | IC50 at 48 h [14] [µM] | selectivity ratio [15] | other results
1 | 23.2 | – | O=Cc1ccc([N+](=O)[O-])o1 | 8.56 | 7.28 | 8.35 | 0.87 | 5.6 | 4 | 1.3 | > 10 | 2.68 | 3 | 9 | – | – | selectivity ratio (in vitro [11]): 3
2 | 72.8 | 70 | CCCCCc1cn(CCCCCN2C(=O)CN(/N=C/c3ccc([N+](=O)[O-])o3)C2=O)nn1 | > 10 | 1.07 | > 10 | – | 6.56 | 11 | 0.2 | > 10 | > 10 | – | – | 12 | 11 | –
3 | > 100 | > 100 | COc1ccc(-c2cn(CCCN3C(=O)CN(/N=C/c4ccc([N+](=O)[O-])o4)C3=O)nn2)cc1 | > 10 | 0.8 | > 10 | – | 9.75 | > 10 | 0.1 | > 10 | > 10 | – | – | 10.8 | 13 | –
4 | > 100 | 38.5 | CCCCCCc1cn(CCCN2C(=O)CN(/N=C/c3ccc([N+](=O)[O-])o3)C2=O)nn1 | > 10 | 0.48 | 0.84 | 0.7 | > 10 | – | – | > 10 | > 10 | 119 | – | 16.5 | 34 | –
5 | > 100 | 50.6 | CCCCCc1cn(CCCN2C(=O)CN(/N=C/c3ccc([N+](=O)[O-])o3)C2=O)nn1 | > 10 | 0.55 | 0.61 | 0.8 | > 10 | – | – | > 10 | > 10 | 164 | – | 35.6 | 74 | –
6 | > 100 | 52.5 | CCCCc1cn(CCCN2C(=O)CN(/N=C/c3ccc([N+](=O)[O-])o3)C2=O)nn1 | 1.01 | 0.45 | 3.34 | 0.2 | > 10 | – | – | > 10 | > 10 | 30 | – | 43.9 | 98 | selectivity ratio [17]: 99
7 | 3.86 | 6.65 | O=C1CN(/N=C/c2ccc([N+](=O)[O-])o2)C(=O)N1CCCn1cc(CSc2ccccc2)nn1 | > 10 | 0.67 | > 10 | – | 3.98 | 1 | 0.2 | > 10 | 9.9 | – | – | 37.4 | 56 | –
8 | 31.6 | > 100 | CCCCc1cn(CCCCCN2C(=O)CN(/N=C/c3ccc([N+](=O)[O-])o3)C2=O)nn1 | > 10 | 0.44 | > 10 | – | 5.69 | 6 | 0.1 | > 10 | 1.68 | – | 19 | > 100 | > 227 | –
9 | – | > 100 | O=C1OCCN1/N=C/c1ccc([N+](=O)[O-])o1 [FURAZOLIDONE] | 4.94 | – | 5.75 | 0.1 | > 10 | – | – | – | 1.68 | 17 | 60 | – | – | Ratio IC50 [18]: 0.1; Ratio IC50 [19]: 0.2; IC50 at 48 h (in vitro [10]; vero): > 100 µM; selectivity ratio (in vitro [11]): 270; selectivity ratio (in vitro [20]): 357
10 | – | – | O=C1CN(/N=C/c2ccc([N+](=O)[O-])o2)C(=O)N1 [NITROFURANTOIN] | > 10 | > 10 | > 10 | – | > 10 | – | – | > 10 | 3.57 | – | – | – | – | IC50 at 48 h (in vitro [10]; vero): > 100 µM; IC50 at 48 h (in vitro [16]; thp-1): > 100 µM; selectivity ratio (in vitro [13]): 28
11 | > 100 | > 100 | NC(=O)N/N=C/c1ccc([N+](=O)[O-])o1 [NITROFURAZONE] | 4.11 | – | 2.8 | 0.12 | 5.6 | – | 0.1 | – | 2.7 | 36 | 37 | – | – | Ratio IC50 [18]: 0.2; Ratio IC50 [19]: 0.3; selectivity ratio (in vitro [11]): 54; selectivity ratio (in vitro [20]): 54
